Patent US20100120013A1, “PROCEDURE FOR LONG TERM CORNEAL CULTURE” (MB RESEARCH LABORATORIES, INC., priority 2008, published 2010)

Tested on: excised cultured porcine corneas
Settings: pig, 5 min, 100 %

time in culture at which dosed corneas no longer retain NaFL stain (recovery): 3 to 10 days
Compound: CCO [ethanol]
